Data: patent US6867207B2, “IL-5 inhibiting 6-azauracil derivatives” (Janssen Pharmaceutica N.V., priority 1997, dated 2005)
Marks after values point to notes of the source that are not given here.

System: IL-5 production
Assay: In vitro inhibition of IL-5 production in human blood (phytohemagglutinin-stimulated whole blood, ELISA)
Format: cell-based
Settings: test dose 1×10^−5 M (values marked *), 48 hours
How it was run: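 Percent inhibition of IL-5, quantified by ELISA in cell-free supernatants, is given at a single dose of 1×10^−6 M (or 1×10^−5 M). Threefold-diluted human whole blood from healthy men received compound for 60 min at 37° C before 48 h PHA stimulation at 2 μg/mL.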

SMILES	% inh. (percentage inhibition of IL-5 production), marked with *
O=c1cnn(-c2ccc(C(Sc3nc4ccccc4[nH]3)c3ccc(Cl)cc3)c(Cl)c2)c(=O)[nH]1 (racemic) [Compound 52]	57* %

Same assay, conditions: test dose 1×10^−6 M, 48 hours

SMILES	% inh. (percentage inhibition of IL-5 production)
Cc1nc(-c2ccccc2)c(C(c2ccc(Cl)cc2)c2ccc(-n3ncc(=O)[nH]c3=O)cc2Cl)s1 (racemic) [Compound 134]	95%
Cn1cc(-c2ccccc2)nc1C(c1ccc(Cl)cc1)c1c(Cl)cc(-n2ncc(=O)[nH]c2=O)cc1Cl (centres unmarked) [Comp 425]	70%
Nc1ccnc(SC(c2ccc(Cl)cc2)c2c(Cl)cc(-n3ncc(=O)[nH]c3=O)cc2Cl)n1 (racemic) [Compound 348]	83%
O=c1cnn(-c2cc(Cl)c(C(Sc3ccccn3)c3ccc(Cl)cc3)c(Cl)c2)c(=O)[nH]1 (centres unmarked) [Compound 377]	87%
CS(=O)(=O)O.O.O.O=c1cnn(-c2cc(Cl)c(C(Sc3nccc(N4CCOCC4)n3)c3ccc(Cl)cc3)c(Cl)c2)c(=O)[nH]1 (racemic) [Compound 344]	82%
CCc1sc(C(C)(c2ccc(Cl)c(Cl)c2)c2c(Cl)cc(-n3ncc(=O)[nH]c3=O)cc2Cl)nc1-c1ccccc1 (racemic) [Comp 251]	90%
Cc1ccccc1-c1nc(C(c2ccc(Cl)cc2)c2c(Cl)cc(-n3ncc(=O)[nH]c3=O)cc2Cl)cs1 (racemic) [Compound 374]	94%
O=c1cnn(-c2ccc(C(NC3CCCCC3)c3ccc(Cl)cc3)c(Cl)c2)c(=O)[nH]1 (racemic) [Compound 46]	64%
CCOC(=O)C(=O)Nc1cccc(-c2nnc(C(c3ccc(Cl)cc3)c3c(Cl)cc(-n4ncc(=O)[nH]c4=O)cc3Cl)o2)c1.O (racemic) [Compound 219]	8%
O=c1cnn(-c2cc(Cl)c(C(c3ccc(Cl)cc3)c3nc(-c4cccc(C(F)(F)F)c4)cs3)c(Cl)c2)c(=O)[nH]1 (racemic) [Comp 20]	70%
O=c1cnn(-c2cc(Cl)c(C(c3ccc(Cl)cc3)c3nc(-c4ccc(O)cc4)cs3)c(Cl)c2)c(=O)[nH]1 (racemic) [Comp 26]	85%
O=c1cnn(-c2cc(Cl)c(C(c3ccncc3)c3ccc(Cl)cc3)c(Cl)c2)c(=O)[nH]1 (centres unmarked) [Comp 113]	76%
Cc1oc(C(c2ccc(Cl)cc2)c2c(Cl)cc(-n3ncc(=O)[nH]c3=O)cc2Cl)nc1-c1ccccc1 (centres unmarked) [Comp 426]	92%
Cc1ccnc(SC(c2ccc(Cl)cc2)c2ccc(-n3ncc(=O)[nH]c3=O)cc2Cl)n1 (racemic) [Compound 75]	72%
CN(C)CCc1sc(C(c2ccc(Cl)cc2)c2c(Cl)cc(-n3ncc(=O)[nH]c3=O)cc2Cl)nc1-c1ccccc1 (racemic) [Comp 279]	92%
COc1cccc(-c2csc(C(c3ccc(Cl)cc3)c3c(Cl)cc(-n4ncc(=O)[nH]c4=O)cc3Cl)n2)c1 (racemic) [Comp 24]	74%

Same assay, conditions: test dose 1×10^−6 M, 48 hours, read-out: % inh. (percentage inhibition of IL-5 production)

SMILES	inhibition at 1 µM
O=c1cnn(-c2ccc(C(c3ccc(Cl)cc3)c3nc4ccccc4o3)c(Cl)c2)c(=O)[nH]1 (racemic) [Compound 131, (±)-2-[4-[2-benzoxazolyl(4-chlorophenyl)methyl]-3-chlorophenyl]-1,2,4-triazine-3,5(2H,4H)-dione]	76%
O=c1cnn(-c2cc(Cl)c(C(Sc3nccc(NCCO)n3)c3ccc(Cl)cc3)c(Cl)c2)c(=O)[nH]1 (racemic) [Compound 357, (±)-2-[3,5-dichloro-4-[(4-chlorophenyl)[[4-[(2-hydroxyethyl)amino]-2-pyrimidinyl]-thio]methyl]phenyl]-1,2,4-triazine-3,5(2H,4H)-dione]	69%
O=c1cnn(-c2ccc(C(NCCO)c3ccc(Cl)cc3)c(Cl)c2)c(=O)[nH]1 (racemic) [Compound 51, (±)-2-[3-chloro-4-[(4-chlorophenyl)[(2-hydroxyethyl)amino]methyl]phenyl]-1,2,4-triazin-3,5(2H,4H)-dione]	10%
